Test results taken from US20090271892A1, “LYSOPHOSPHATIDIC ACID ACYLTRANSFERASE GENES AND USES THEREOF” (priority 2006, published 2009).
Where two headings read alike, the source gives them in different places.

Columns and labels:
[1] = biological target: Brassica napus LPAAT (BnLPAAT) (Brassica napus, UniProt Q9XFW4); test: Competitive LPAAT assay using C18:1-CoA and C19CA-CoA; assay type: biochemical
Description: (§1) The ^3H-oleoyl-lysophosphatidic acid (^3HLPA, ref. NET1100; 600 μM, 28 mCi mmol^−1) and ^14C-Oleoyl-CoA (^14CC18:1-CoA, ref. NET651A; 300 μM, 11 mCi mmol^−1) radio-labeled substrates were purchased from Perkin Elmer. Assays were carried out in a final volume of 300 μl and contained Tris/HCl (100 mM, pH7.5), Triton X-100 (0.01% w/v), BSA (1 mg/ml), ascorbic acid (10 mM), EDTA (2 mM), 100 μl LPA and 50 μl acyl-CoA. The reaction was started by the addition of 30 μl of microsomes, and conducted in a glass vial placed in a Eppendorf Thermomixer-compact apparatus (30° C., 350 rpm). The reaction was stopped after incubation (from 0 to 120 min) by addition of 720 μl of chloroform/methanol (1:1). To separate the phases, 280 μl of 1M KCl in 0.2 M H3PO4 were added and the whole mixture was vortexed for 10 s before centrifugation at 1300 g, 5 min at room temperature. The upper aqueous phase was discarded and 2×25 μl of the remaining organic phase was spotted on to silica gel 60 ÅF254 TLC plates (ref. 1.05715, Merck) and developed in chloroform/methanol/NH4OH/water (65:25:0.9:3). The phosphatidic acid spot was visualized by iodine revelation and collected for scintillation counting.
(§2) Radioactivity measurement was performed in 10 mL Ultimagold (ref. 6013329, Perkin Elmer) using a liquid scintillation analyzer (Tri-Carb 2100TR, Packard) for determination of ^3H and ^14C separately.
(§3) […] For all experimental conditions, data are derived from three experiments with 4 replicates each.
(§4) LPAAT selectivity for the two substrates is calculated as follows:
(§5) Selectivity for C18:1-CoA: S^C18:1-CoA=^14C/^3H
(§6) Selectivity for C19CA-CoA: S^C19:1CA-CoA=(^3H—^14C)/^3H
(§7) in which, ^3H and ^14C are the molar quantity of produced PA and the molar quantity of ^14C18:1 incorporated into this PA. These molar quantities are calculated from the corresponding ^3H and ^14C radioactivity levels measured in the phosphatidic acid spots scraped from TLC plates. Selectivity is expressed as the fraction of the specific fatty acid incorporated out of the total incorporated at the sn-2 position.

[2] = biological target: Litchi sinensis LPAAT (LsLPAAT) (Litchi chinensis, UniProt A0A346D9Z1); test: as above; assay type: biochemical
Description: as §1, §2, §3, §4, §5, §6, §7

[3] = substrate: CCCCCCCC/C=C\CCCCCCCC(=O)SCCNC(=O)CCNC(=O)[C@H](O)C(C)(C)COP(=O)(O)OP(=O)(O)OC[C@H]1O[C@@H](n2cnc3c(N)ncnc32)[C@H](O)[C@@H]1OP(=O)(O)O; test: LPAAT assay, kinetic parameters with C18:1-CoA, E. coli JC201 microsomes; assay type: biochemical, Litchi sinensis; settings: other: C18:1-CoA 0-50 μM, 10 min, 30° C., pH7.5, N = 5, pH 7.5
Description: The inventors have identified one putative Lysophosphatidic Acid-Acyl Transferase from Lychee (SEQ ID No 2). They also have obtained a mutated protein derived from this protein, which is depicted as SEQ ID No 1.
Plasmids pEW108 and 117 comprising genes coding for SEQ ID No 1 and SEQ ID No 2 respectively under the control of the araBAD promoter (Guzman, L-M. et al. (1995) J Bacteriology 177: 4121-4130) were prepared and used to transform and complement an E. coli strain. The araBAD promoter is induced by arabinose, repressed by glucose and is used in the art to express polynucleotides in a controlled manner.
The following experiments were performed with the Escherichia coli JC201 mutant strain, which is temperature conditional in endogenous LPAAT activity and able to grow at 30° C. but not at 44° C. (genotype plsC, described in Coleman, 1990 J. Biol. Chem., 265 (28), 17215-21.). These bacteria were kept at −80° C. as 1 ml glycerol stocks. For E. coli JC201 transformation, one glycerol stock was diluted in 15 mL of Luria-Bertani (ref. L3022, Sigma) liquid medium and cultivated overnight at 30° C. […] Optical density was measured at 600 nm and each flask was then cultivated for 6 hours at 30 and 44° C. respectively in order to check by optical density measurement that bacterial growth occurs at 30° C. but not at 44° C. […]

[4] = Competitive LPAAT assay using C18:1-CoA and C19CA-CoA; assay type: biochemical; settings: competitive assays using C19CA-CoA and C18:1-CoA
Description: as §1, §2, §3, §4, §5, §6, §7

[5] = LPAAT assay with C18:1-CoA as substrate (microsomes of transformed E. coli); assay type: biochemical; settings: expressed in transformed E. coli mutant strains; FIG. 1
Description: The ^3H-oleoyl-lysophosphatidic acid (^3HLPA, ref. NET1100; 600 μM, 28 mCi mmol^−1) and ^14C-Oleoyl-CoA (^14CC18:1-CoA, ref. NET651A; 300 μM, 11 mCi mmol^−1) radio-labeled substrates were purchased from Perkin Elmer. Assays were carried out in a final volume of 300 μl and contained Tris/HCl (100 mM, pH7.5), Triton X-100 (0.01% w/v), BSA (1 mg/ml), ascorbic acid (10 mM), EDTA (2 mM), 100 μl LPA and 50 μl acyl-CoA. The reaction was started by the addition of 30 μl of microsomes, and conducted in a glass vial placed in a Eppendorf Thermomixer-compact apparatus (30° C., 350 rpm). The reaction was stopped after incubation (from 0 to 120 min) by addition of 720 μl of chloroform/methanol (1:1). […]
as §2
A first LPAAT assay was performed as described above in order to determine optimal LPAAT activity using ^14CC18:1-CoA as substrate: • Effect of incubation time was tested for 0, 1, 3, 5, 10, 30, 60 and 120 min with 50 μM ^14CC18:1-CoA at 30° C. • In order to determine LPAAT kinetic parameters, the effect of C18:1-CoA concentration was tested as described above. […] For all experimental conditions, the mean of 2 values is calculated. […]

[6] = 50 μM C18:1-CoA, 25 μM C19CA, fraction of total incorporated at sn-2, read-out: Selectivity for C19CA-CoA in competition with C18:1-CoA
[7] = 50 μM C18:1-CoA, 50 μM C19CA, fraction of total incorporated at sn-2, read-out: Selectivity for C19CA-CoA in competition with C18:1-CoA
[8] = average over the concentrations, read-out: Average selectivity for C19CA-CoA in competition with C18:1-CoA

Chain of Brassica napus LPAAT (BnLPAAT) (Q9XFW4 other isoform, or with tags, fused parts or gaps): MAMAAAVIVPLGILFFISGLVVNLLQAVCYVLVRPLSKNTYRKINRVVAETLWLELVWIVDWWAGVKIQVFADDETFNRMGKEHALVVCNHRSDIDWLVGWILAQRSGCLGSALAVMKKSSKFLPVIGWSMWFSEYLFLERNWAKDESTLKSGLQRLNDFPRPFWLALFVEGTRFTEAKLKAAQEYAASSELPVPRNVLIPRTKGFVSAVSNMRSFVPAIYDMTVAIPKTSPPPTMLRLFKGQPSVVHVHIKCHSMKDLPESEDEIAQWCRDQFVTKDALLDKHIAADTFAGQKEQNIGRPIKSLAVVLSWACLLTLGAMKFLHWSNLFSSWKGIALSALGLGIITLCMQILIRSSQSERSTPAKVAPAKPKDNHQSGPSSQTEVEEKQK

CCCCCCCCC1CC1CCCCCCCC(=O)SCCNC(=O)CCNC(=O)[C@H](O)C(C)(C)COP(=O)(O)OP(=O)(O)OC[C@H]1O[C@@H](n2cnc3c(N)ncnc32)[C@H](O)[C@@H]1OP(=O)(O)O (stereo partly shown) [C19CA-CoA]
selectivity ratio [1, 6]: 0.01
selectivity ratio [1, 7]: 0.19
selectivity ratio [1, 8]: 0.054 ± 0.057
selectivity ratio ([2]; 25 μM C18:1-CoA, 10 μM C19CA, fraction of total incorporated at sn-2, read-out: Selectivity for C19CA-CoA in competition with C18:1-CoA): 0.15
selectivity ratio ([2]; 25 μM C18:1-CoA, 25 μM C19CA, fraction of total incorporated at sn-2, read-out: Selectivity for C19CA-CoA in competition with C18:1-CoA): 0.34
selectivity ratio [2, 6]: 0.28
selectivity ratio [2, 7]: 0.35
selectivity ratio [2, 8]: 0.377 ± 0.101
Fatty acids incorporated at the sn-2 position being 19:0CA ([2]; in competition with C18:1-CoA, even at low total concentrations of acyl-CoA): up to 35%

B1: Litchi sinensis LPAAT (LsLPAAT, pEW117), SEQ ID No 2 (Litchi chinensis) (protein)
chain: MAVAAAAVVVPLGLLFFISGLVVNLFQAVCFVTIRPLSKNLYRRINRVLAELLWLELVWIVDWWAGVKIKLYTDSETFHLMGKEHALVVSNHRSDIDWLVGWVLAQRSGCLGSALAVMKKSSKLLPVIGWSMWFSEYLFLERNWAKDESTLRSGLQRLKDFPKPFWLALFVEGTRFTQAKLLAAQEYATSTGLPIPRNVLIPRTKGFVASVSHMRSFVPAIYDTTVAIPKSSPAPTMLRLFKGQSSVVHVHIKRCLMKDLPETDDTVAQWCRDIFVAKDELLDKHNVEDTFNDGELQDTSRPVKSLLVVTSWACLVVLGALKFLQWSSLLSSWKGIAFSALGLGVVTVLMHILILFSQSERSTPAKVAPAKPKNNGEPSTRSQDKQK
Km [3]: 3.6 ± 1.7 µM
Vmax [3]: 0.000115 µmol/min/mg

B2: LsLPAAT: L. sinensis LPAAT; clone not stated in Table 2, probably pEW108 / SEQ ID No 1 (protein)
chain: MAVAAAAVVVPLGLLFFISGLVVNLFQAVCFVTIRPLSKNLYRRINRVLAELLWLELVWIVDWWAGVKIKLYTDSETFHLMGKEHALVVSNHRSDIDWLVGWVLAQRSGCLGSALAVMKKSSKLLPVIGWSMWFSEYLFLERNWAKDESTLRSGLQRLKDFPKPFWLALFVEGTRFTQAKLLAAQEYATSTGLPIPRNVLIPRTKGFVASVSHMRSFVPAIYDTTVAIPKSSPAPTMLRLFKGQSSVVHVHIKRCLMKDLPETDDTVAQWCRDIFVAKDELLDKHNVEDTFNDGELQDTSRPVKSLLVVTSWACLVVLGALKFLQWSSLLSSWKGIAFSALGLGVVTVLMHILILFSQSERSTPAKVAPAKPKNNGEPSTRSPAHPK
modifications: synthetic LPAAT derived from litchi
use of C19CA-CoA as substrate [4]: can use C19CA-CoA as substrate
esterification of 14C-C18:1-CoA on 3H-LPA (presence of PA in lipid fraction) [5]: fully functional
